Laboratory results published in article PMC3241856 (ACS chemical biology, 2011).

Biological target: mu opioid receptor (MOR) (Rattus norvegicus, UniProt P33535)
Assay: Stimulation of [35S]GTPγS binding, C6-MOR membranes
Format: biochemical
Details: 10 μM peptide compared to 10 μM DAMGO

mu opioid receptor (MOR), sequence (P33535 whole entry): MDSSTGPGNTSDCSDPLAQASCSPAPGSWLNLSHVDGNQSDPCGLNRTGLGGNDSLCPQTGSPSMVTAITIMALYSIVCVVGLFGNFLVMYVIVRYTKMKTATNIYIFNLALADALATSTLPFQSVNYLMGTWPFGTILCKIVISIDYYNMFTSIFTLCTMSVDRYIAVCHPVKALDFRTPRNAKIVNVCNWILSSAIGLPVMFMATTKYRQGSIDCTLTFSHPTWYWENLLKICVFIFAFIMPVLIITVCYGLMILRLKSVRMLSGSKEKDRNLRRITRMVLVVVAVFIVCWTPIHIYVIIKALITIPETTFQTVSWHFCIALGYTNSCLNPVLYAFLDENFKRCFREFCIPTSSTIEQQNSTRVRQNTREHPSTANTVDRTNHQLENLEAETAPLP

NC(=O)[C@H](Cc1ccccc1)NC(=O)[C@H](Cc1ccccc1)NC(=O)[C@@H]1CCCN1C(=O)[C@@H](N)Cc1ccc(O)cc1 [endomorphin-2]
MOR % max. stimulation of [35S]GTPγS binding: 49 ± 7%
